The source of these data is PubChem BioAssay (NCI).

What all share (assay): NCI tumour cell line growth inhibition, 48 h
Assay [1] deals with ACHN renal.
In assay [2] the test system is RXF 393 renal.
In assay [3] the test system is UO-31 renal.
Assay [4] deals with NCI-H226 lung.
Assay [5] has as its system NCI-H23 lung.
In assay [6] the test system is SK-MEL-5 melanoma.
Assay [7] concerns SN12C renal.
For assay [8], the system named is NCI-H522 lung.
For assay [9], the system named is HCC-2998 colon.
Assay [10] relates to UACC-62 melanoma.

Where “and” joins values, the source holds several entries; their conditions need not be identical. Equal entries are not always repeated.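 How tested: cells in 96-well plates exposed to compound for 48 hours at five concentrations. Abbreviation: GI50, concentration required for 50% inhibition of growth. TGI: total growth inhibition.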

As to `O=C(CI)NC(=O)NC(=O)NCc1ccccc1`, the GI50 in [1] was 1.95 µM; in [2] it was 2.98 µM; in assay [3], 1.66 µM; in assay [4], 4.53 µM; in [5], 4.32 µM; in assay [6], 4.73 µM. In addition, the GI50 in assay [7] was 3.5 µM; in assay [8] it was 1.62 µM; in assay [9] it was 10.4 µM; in assay [10], 3.82 µM. Moreover, the TGI in [1] stood at 3.76 µM; in assay [2], 9.31 µM; in assay [3], 3.31 µM; in [4], 20.4 µM; in assay [5], 19.5 µM; in assay [6], 15.9 µM. The TGI in assay [7] was 14.6 µM; in assay [8] it was 3.52 µM; in assay [9], 22.9 µM; in assay [10], 14.6 µM.
`CCc1ccc(Oc2c(-c3ccc(OCc4ccc(Cl)cc4)cc3O)nn(C)c2C(F)(F)F)cc1`: the GI50 in [1] was 0.385 µM; in [2], 1.14 µM; in assay [3] it was 0.432 µM; in assay [4], 1.18 µM; in assay [5], 0.376 µM; in assay [6], 1.22 µM. Further, the GI50 in assay [7] is 1.04 µM; in [8], 0.303 µM; in assay [9] it was 2.44 µM; in assay [10] it was 0.516 µM. Further, the TGI in assay [1] is 1.7 µM; in assay [2] it was 2.59 µM; in [3] it was 1.63 µM; in assay [4], 3.6 µM; in assay [5] it was 1.74 µM; in [6], 2.47 µM. In addition, the TGI in assay [7] came out at 2.48 µM; in assay [8], 1.94 µM; in assay [9] it was 9.62 µM; in assay [10], 2.25 µM.
For `CNC(=O)OCc1nc(SSc2nc(COC(=O)NC)c(COC(=O)NC)n2C)n(C)c1COC(=O)NC`, the TGI in assay [1], in assay [2], in assay [3], in [4], in assay [5] and in [6] was over 100 µM throughout. Further, the TGI in assay [7], in assay [8], in assay [9] and in assay [10] was over 100 µM each time.
For the compound `CC[n+]1c(-c2ccccc2)c2cc(N)ccc2c2ccc(N)cc21`, the GI50 in assay [1] was 14.1 µM; in [2], 1.07 µM; in assay [3], 21.4 µM and 86.9 µM and 27.2 µM; in assay [4], 0.504 µM and 0.723 µM and 2.65 µM; in assay [5] it was 0.515 µM; in assay [6], 0.864 µM. The GI50 in assay [7] is 0.306 µM; in assay [9], 1.22 µM; in assay [10], 0.578 µM. The TGI in assay [1] was over 100 µM; in assay [2], 3.51 µM and 17.1 µM; in assay [3] it was over 100 µM; in assay [4] it was 4.55 µM and 5.64 µM and 13.5 µM; in [5], 3.65 µM and 5.2 µM and 3.61 µM; in [6] it was 2.14 µM and 2.6 µM. The TGI in assay [7] was 12 µM and 19.7 µM and 7.37 µM; in assay [8], 2.54 µM and 8.58 µM and 23.2 µM; in assay [9], 3.31 µM and 16.5 µM and 19.8 µM; in assay [10] it was 2.4 µM and 3.61 µM.
Regarding `O=C1Nc2ccc(-c3cccnc3)cc2/C1=C/c1cc(Br)c(O)c(Br)c1`, the GI50 in [1] was 8.15 µM; in assay [2] it was 6.08 µM; in [3], 6.54 µM; in assay [4] it was 8.43 µM; in [5], 6.86 µM; in assay [6], 3.95 µM. Moreover, the GI50 in [7] is 9.12 µM; in assay [8], 4.38 µM; in [9], 8.58 µM; in [10], 3.54 µM. Further, the TGI was over 25 µM in assay [1]; over 19.9 µM in [2]; over 18.3 µM in assay [3]; over 25 µM in assay [4]; over 21.9 µM in assay [5]; 7.78 µM in assay [6]. The TGI in assay [7] is over 25 µM; in assay [8] it was 13.7 µM; in assay [9] it was over 25 µM; in [10], 9.87 µM.
With `O=C(O)c1ccccc1C(=O)c1ccco1`, the TGI in [1], in assay [2], in [3], in [4], in assay [5] and in [6] was over 100 µM each time. Further, the TGI in assay [7], in [8], in assay [9] and in assay [10] was over 100 µM in each case.
Consider `CC(C)(C)O/N=C/c1cc(NC(=S)c2ccccc2)ccc1Cl`, for which the TGI stood at 32.7 µM in assay [1]; 27.9 µM in [2]; 31.6 µM in assay [3]; 34.7 µM in assay [4]; 34.1 µM in [5]; 41.5 µM in [6]. The TGI in [7] came to 26 µM; in assay [8], 28.2 µM; in [9], 24.2 µM; in assay [10], 32.7 µM.
In the case of `COc1cc([C@@H]2c3cc4c(cc3[C@H](SC(=N)N)[C@H]3COC(=O)[C@H]23)OCO4)cc(OC)c1OC`, the GI50 in assay [1] was 0.41 µM; in assay [2] it was 2.3 µM; in assay [3], 2.6 µM; in assay [4], 0.573 µM; in [5] it was 0.299 µM; in [6], 0.201 µM. In addition, the GI50 in assay [7] is 0.621 µM; in assay [8] it was 0.125 µM; in assay [9], 0.338 µM; in [10], 1.64 µM. The TGI in [1] is over 84.2 µM; in assay [2], 35.6 µM; in assay [3] it was over 71.2 µM; in assay [4], over 100 µM; in assay [5], over 100 µM; in assay [6] it was 0.649 µM. In addition, the TGI in assay [7], in assay [9] and in assay [10] was over 100 µM throughout.
As for `NC1=NC(c2ccccc2Cl)c2c(n[nH]c2N)N1` (stereo unspecified), the GI50 was 34.6 µM in assay [1]; 13.7 µM in assay [2]; 9.21 µM in assay [3]; 38.4 µM in [4]; 20.3 µM in assay [5]; 29.2 µM in assay [6]. Further, the GI50 was 8.35 µM in assay [7], 19.6 µM in assay [8], 65 µM in assay [9] and 13.5 µM in [10]. In addition, the TGI in assay [1] is over 100 µM; in [2], 97.6 µM; in assay [3], over 100 µM; in assay [4] it was over 100 µM; in [5] it was over 100 µM; in assay [6], over 100 µM. For the same compound, the TGI in assay [7], in assay [8], in assay [9] and in assay [10] was over 100 µM each time.
On to `Nc1ncnc2c1c(-c1ccc(Oc3ccccc3)cc1)nn2CC1SSCC1O` (stereo unspecified), for which the GI50 in assay [1] was 4.27 µM; in assay [2] it was 2.74 µM; in [3], 1.22 µM; in assay [4], 3.7 µM; in assay [5], 1.7 µM; in [6], 1.29 µM. The GI50 in assay [7] is 4.97 µM; in assay [8], 2.62 µM; in assay [9], 6.75 µM; in assay [10], 0.63 µM. Further, the TGI was determined as 14.9 µM in assay [1]; 9.62 µM in assay [2]; 5.88 µM in assay [3]; 9.91 µM in [4]; 7.97 µM in assay [5]; 5.07 µM in assay [6]. Also, the TGI in assay [7] came to 15.2 µM; in assay [8], 9.49 µM; in assay [9] it was 20.5 µM; in assay [10] it was 1.33 µM.
In the case of `Cc1ccc2ccc3c4ccccc4ccc3c2c1`, the GI50 in assay [1] was 31.9 µM; in assay [2] it was 20.1 µM; in assay [3] it was 23.3 µM; in [4], 30.3 µM; in [5], 22.4 µM; in assay [6] it was 27.6 µM. Moreover, the GI50 in [7] was 27 µM; in assay [8], 19.1 µM; in assay [9], 20.8 µM; in [10], 21.8 µM. Further, the TGI in assay [1] is over 100 µM; in assay [2], 46.8 µM; in assay [3] it was over 100 µM; in assay [4], over 100 µM; in [5], 96.5 µM; in assay [6] it was 92.9 µM. For the same compound, the TGI in assay [7] is over 100 µM; in [8] it was 51.7 µM; in assay [9] it was 43.2 µM; in [10], over 100 µM.
Turning to `O=C1C2C(C(=O)N1Cc1ccccc1)N(Cc1ccccc1)C(=O)N2Cc1ccccc1` (stereo unspecified), the TGI in assay [1], in assay [2], in [3], in assay [4], in [5] and in assay [6] was over 100 µM throughout. Besides, the TGI in assay [7], in assay [8], in assay [9] and in assay [10] was over 100 µM each time.
Turning to `CCCCCCCCCCCCCC(=O)O[C@H]1CC[C@H](NC(=O)[C@H](OC)[C@H](O)[C@@H](O)[C@H](O)/C=C/C(C)C)C(=O)N(C)C1`, the GI50 in assay [1] is 0.0306 µM; in [2] it was 0.00238 µM; in [3], 0.0283 µM; in assay [4], 0.544 µM; in assay [5], 0.00328 µM; in assay [6], 0.00347 µM. For the same compound, the GI50 was 0.00238 µM in [7], 0.00689 µM in assay [8], 0.00238 µM in assay [9] and 0.00238 µM in [10]. Moreover, the TGI in [1] was 15 µM and > 23.8 µM; in [3], 15 µM and 8.93 µM; in assay [5] it was 0.15 µM and 0.056 µM; in assay [6], 0.337 µM and 0.0726 µM; in assay [7] it was 15 µM and 4.84 µM; in assay [8] it was 0.269 µM and 0.168 µM. In addition, the TGI is 0.63 µM and 4.25 µM in [9]; 0.0655 µM and 0.00779 µM in assay [10].
